# Data: patent US10059722B2, “Cephalosporin derivatives and methods of use” (priority 2012, dated 2018)
# “Also recorded” adds a separate entry of the source. Where two headings read alike, the source gives them in different places.
# What was measured:
# [1] = tested on: non-replicating M. tuberculosis; assay: microbe, parasite or virus in culture; type: cell-based, Mycobacterium tuberculosis; details: for MIC: Mycobacterium tuberculosis
# [2] = tested on: replicating M. tuberculosis; assay: MIC under replication (R) conditions; type: cell-based, Mycobacterium tuberculosis; details: for MIC: Mycobacterium tuberculosis
# HepG2 cells = type: cell-based; details: human, 2 day
# Experimental: Three lead compounds were identified in the first round of high throughput screening (700 compounds), which had minimal inhibitory concentrations (MIC) of 0.4-0.8 μg/mL after a six day exposure to drug (NRd6) in the model of non-replication at pH 5.0, and LD50's of 100 to >100 μg/mL against HepG2 cells (a 2 day exposure).
# Furthermore, LD50 values were determined using a human hepatoma cell line (HepG2) using intracellular ATP levels as a measurement that correlated with cellular viability.
# Escherichia coli = assay: Antibiotic spectrum: Escherichia coli; type: cell-based; details: Gram negative, replicating conditions, n=1 experiment; for MIC: Escherichia coli, read-out: MIC against Escherichia coli
# Streptococcus = assay: Antibiotic spectrum: Streptococcus; type: cell-based; details: Gram positive, replicating conditions, n=1 experiment; for MIC: Streptococcus, read-out: MIC against Streptococcus
# Pseudomonas aeruginosa = assay: Antibiotic spectrum: Pseudomonas aeruginosa; type: cell-based; details: Gram negative, replicating conditions, n=1 experiment; for MIC: Pseudomonas aeruginosa, read-out: MIC against Pseudomonas aeruginosa
# Staphylococcus aureus = assay: Antibiotic spectrum: Staphylococcus aureus; type: cell-based; details: Gram positive, replicating conditions, n=1 experiment; for MIC: Staphylococcus aureus, read-out: MIC against Staphylococcus aureus
# Candida albicans = assay: Activity against fungus Candida albicans; type: cell-based; details: pH 5.0
# Experimental: In addition, activity was tested against the fungus Candida albicans at pH 5.0.
# [3] = tested on: non-replicating wild-type Mycobacterium tuberculosis (Mtb); assay: CFU-based cidal assay, non-replicating wild-type Mtb (FIG. 1); type: cell-based
# [4] = tested on: wild-type Mtb infecting murine bone marrow-derived macrophages; assay: Killing of Mtb infecting bone marrow-derived macrophages (FIG. 2); type: cell-based, Mycobacterium tuberculosis; details: 100 μg/mL
# [5] = tested on: murine bone marrow-derived macrophages; assay: Toxicity to macrophages by visual inspection; details: 100 μg/mL; visual inspection at 400× magnification
# [6] = 72 h, pH 5, Table 2, library samples (purity approximately 75%), read-out: MIC NR pH 5.0, day 3 exposure
# [7] = 144 h, pH 5, Table 2, library samples (purity approximately 75%), read-out: MIC NR pH 5.0, day 6 exposure
# [8] = pH 5, read-out: MIC NR pH 5, D3 exposure
# [9] = pH 5, read-out: MIC NR pH 5, D6 exposure
# [10] = read-out: MIC NR at 0.01 Inoc. and 3 Day Exposure to Drug, 7 Day Outgrowth, Table 8, ranges from multiple assays
# [11] = read-out: MIC NR at 0.01 Inoc. and 3 Day Exposure to Drug, 11 Day Outgrowth, Table 8, ranges from multiple assays
Compound,"MIC [1, 6]","MIC [1, 7]","MIC [1, 8]","MIC [1, 9]","MIC [1, 10]","MIC [1, 11]",HepG2 Toxicity LD50 (HepG2 cells),HepG2 toxicity (HepG2 cells),MIC (Escherichia coli),MIC against Escherichia coli (Escherichia coli),MIC against Streptococcus (Streptococcus),MIC (Streptococcus),MIC against Pseudomonas aeruginosa (Pseudomonas aeruginosa),MIC (Pseudomonas aeruginosa),MIC against Staphylococcus aureus (Staphylococcus aureus),MIC (Staphylococcus aureus),further results
"CCCN[C@@H]1C(=O)N2C(C(=O)OCCC)=C(C)CS[C@H]12 [Compound 11c, (6R,7R)-propyl 3-methyl-8-oxo-7-(propylamino)-5-thia-1-azabicyclo[4.2.0]oct-2-ene-2-carboxylate]",6.3 µg/mL,1.6 µg/mL,1.6 µg/mL,0.4 µg/mL,0.39 to 0.78 µg/mL,0.78 µg/mL,100−>100,>100 µg/mL,> 100 µg/mL,>100 µg/mL,>100 µg/mL,> 100 µg/mL,>100 µg/mL,> 100 µg/mL,>100 µg/mL,> 100 µg/mL,"selectivity index (LD50/MIC-NRd6) [1]: 129; MIC ([2]; pH 6.6, read-out: MIC pH 6.6, R cells): > 100 µg/mL"
CCCOC(=O)C1=C(C)CS[C@@H]2[C@H](NC(=O)OCc3ccccc3)C(=O)N12 [Compound 13],6.3 µg/mL,< 0.39 µg/mL,1.6 µg/mL,0.8 µg/mL,0.2 to 0.39 µg/mL,0.39 to 0.78 µg/mL,100 µg/mL,100 µg/mL,> 100 µg/mL,>100 µg/mL,>100 µg/mL,> 100 µg/mL,>100 µg/mL,> 100 µg/mL,>100 µg/mL,> 100 µg/mL,"MIC ([2]; pH 6.6, Table 3, resynthesized to >95% purity, read-out: MIC pH 6.6, R cells): > 100 µg/mL; MIC against replicating Mtb in presence or absence of clavulanic acid ([2]; with vs without clavulanic acid): identical; MIC (Candida albicans): > 100 µg/mL; surviving Mtb (limit of detection) ([3]; 10 μg/mL, 7 days at 1% O2, OD580 0.01, 7H11-OADC agar): < 100 colony forming units; effect of clavulanate on killing of non-replicating Mtb ([3]; NR conditions, 7 days, presence or absence of clavulanate): clavulanate-independent; also recorded: not detected; cidality against non-replicating wild-type Mtb ([3]; starting inoculum 0.01): cidal activity; also recorded: significant cidality; killing of wild-type Mtb infecting macrophages [4]: kills; increased killing in IFNγ-activated BMDMs versus unactivated ([4]; +50 ng/mL IFNγ vs −IFNγ): approximately 0.5 log10; killing of intracellular Mtb, log10 reduction of CFU ([4]; activated macrophages, MOI 5, two independent experiments): ~1.5 log10; toxicity to the macrophages [5]: no toxicity"
